One data set is described as follows: intravenous LD50. The following applies: mouse, in vivo. As for the experimental part:
The corresponding intravenous LD50 is 30 mg./kg. Other LD50 values for compounds of the invention when dosed intravenously are as follows: […]

A short description of another data set: oral LD50 in mice. The following applies: mouse, in vivo.

In the case of `CC(=O)Oc1cccc2c1Sc1cc(Cl)ccc1C21CCN(C)CC1` [Me 4-OAc H 6-Cl H S], the LD50 in the data set “intravenous LD50” (table 1, read-out: LD50) was above 50 mg/kg.

In the case of `C=CCN1CCC2(CC1)c1ccccc1Sc1c(O)cccc12` [Allyl 4-OH H H H S, 4-hydroxy-1'-allylthioxanthene-9-spiro-4'-piperidine], in the data set “intravenous LD50” (table 1, read-out: LD50), the LD50 is 43 mg/kg.

Consider `CN1CCC2(CC1)c1ccccc1Sc1c(O)cccc12` [4-hydroxy-1'-methylthioxanthene-9-spiro-4'-piperidine], for which the LD50 is 30 mg/kg in the data set “intravenous LD50” (mice, read-out: intravenous LD50) and above 500 mg/kg in “oral LD50 in mice”.

`CCCN1CCC2(CC1)c1ccccc1Sc1c(O)cccc12` [n-Pr 4-OH H H H S]: the LD50 in “intravenous LD50” (table 1, read-out: LD50) worked out at 35 mg/kg.

The LD50 is the dose expected to kill half of the subjects tested.

Values taken from US4001418A, “1'-Substituted-thioxanthene-9-spiro-4'-piperidine derivatives and the 10-oxides and 10,10-dioxides thereof” (priority 1974, dated 1977).
